PubChem BioAssay (NCI)
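96-well plates; 48 h exposure; 5 concentrations. Endpoints by linear interpolation between flanking doses. Not reached: highest tested concentration assigned. GI50 = concentration required for 50% inhibition of growth. Definition used: TGI = concentration required for complete inhibition of growth.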

How the values were obtained:
Test in all cases: inhibition of tumour cell growth, NCI panel, 48 h
[1] = test system: OVCAR-5 ovarian
[2] = test system: HCT-15 colon
[3] = test system: SK-MEL-28 melanoma
[4] = test system: SNB-75 CNS
[5] = test system: LOX IMVI melanoma
[6] = test system: HOP-62 NSCLC
[7] = test system: IGROV1 ovarian
[8] = test system: SF-539 CNS
[9] = test system: SN12C renal
[10] = test system: UACC-257 melanoma
[11] = test system: SK-MEL-5 melanoma
[12] = test system: NCI-H460 lung
[13] = test system: MALME-3M melanoma
[14] = test system: CAKI-1 renal
[15] = test system: KM12 colon
[16] = test system: TK-10 renal
[17] = test system: RPMI-8226 leukemia
[18] = test system: CCRF-CEM leukemia
[19] = test system: NCI-H23 lung
[20] = test system: HL-60(TB) leukemia
[21] = test system: U251 CNS
[22] = test system: A549 NSCLC
[23] = test system: SF-295 CNS
[24] = test system: OVCAR-8 ovarian
[25] = test system: SK-MEL-2 melanoma
[26] = test system: M14 melanoma
[27] = test system: 786-0 renal
[28] = test system: COLO 205 colon
[29] = test system: BT-549 breast
[30] = test system: SW-620 colon
[31] = test system: SF-268 CNS
[32] = test system: HCT-116 colon
[33] = test system: MCF7 breast
[34] = test system: HOP-92 NSCLC
[35] = test system: NCI-H226 lung
[36] = test system: NCI-H522 lung
[37] = test system: HT29 colon
[38] = test system: ACHN renal
[39] = test system: K-562 leukemia
[40] = test system: OVCAR-4 ovarian
[41] = test system: SR leukemia
[42] = test system: EKVX NSCLC
[43] = test system: MDA-MB-231 breast
[44] = test system: HCC-2998 colon
[45] = test system: NCI/ADR-RES ovarian
[46] = test system: DU-145 prostate
[47] = test system: SNB-19 CNS
[48] = test system: PC-3 prostate
[49] = test system: UO-31 renal
[50] = test system: MOLT-4 leukemia
[51] = test system: A498 renal
[52] = test system: HS 578T breast
[53] = test system: MDA-MB-435
[54] = test system: SK-OV-3 ovarian
[55] = test system: UACC-62 melanoma
[56] = test system: OVCAR-3 ovarian
[57] = test system: T-47D breast
[58] = test system: RXF 393 renal

## CC1CCC(C(C)C)C(OC(=O)NCn2cc(-c3ccccc3)nn2)C1 (centres undefined)
[1]
  TGI: > 100 µM
[2]
  TGI: > 100 µM
[3]
  TGI: > 100 µM
[4]
  TGI: 86 µM
[5]
  TGI: > 100 µM
[6]
  TGI: > 100 µM
[7]
  TGI: > 100 µM
[8]
  TGI: > 100 µM
[9]
  TGI: > 100 µM
[10]
  TGI: > 100 µM
[11]
  TGI: > 100 µM
[12]
  TGI: > 100 µM
[13]
  TGI: > 100 µM
[14]
  TGI: > 100 µM
[15]
  TGI: > 100 µM
[16]
  TGI: > 100 µM
[17]
  TGI: > 100 µM
[18]
  TGI: > 100 µM
[19]
  TGI: > 100 µM
[20]
  TGI: > 100 µM
[21]
  TGI: > 100 µM
[22]
  TGI: > 100 µM
[23]
  TGI: > 100 µM
[24]
  TGI: > 100 µM
[25]
  TGI: > 100 µM
[26]
  TGI: > 100 µM
[27]
  TGI: > 100 µM
[28]
  TGI: > 100 µM
[29]
  TGI: > 100 µM
[30]
  TGI: > 100 µM
[31]
  TGI: > 100 µM
[32]
  TGI: > 100 µM
[33]
  TGI: > 100 µM
[34]
  TGI: > 100 µM
[35]
  TGI: > 100 µM
[36]
  TGI: > 100 µM
[37]
  TGI: > 100 µM
[38]
  TGI: > 100 µM
[39]
  TGI: > 100 µM
[40]
  TGI: > 100 µM
[41]
  TGI: > 100 µM
[42]
  TGI: > 100 µM
[43]
  TGI: > 100 µM
[44]
  TGI: > 100 µM
[45]
  TGI: > 100 µM
[46]
  TGI: > 100 µM
[47]
  TGI: > 100 µM
[48]
  TGI: > 100 µM

## Oc1cc2cccc[n+]2c2cc(Cl)ccc12
[4]
  GI50: 91.5 µM
[9]
  GI50: 45.2 µM
[49]
  GI50: 57.9 µM
[50]
  GI50: 57.3 µM
[14]
  GI50: 65.9 µM
[17]
  GI50: 57 µM
[18]
  GI50: 35.9 µM
[51]
  GI50: 18.2 µM
  TGI: 32.4 µM
[52]
  GI50: 84.5 µM
[24]
  GI50: 92.3 µM
[28]
  GI50: 56.9 µM
[29]
  GI50: 78 µM
[31]
  GI50: 56.3 µM
[53]
  GI50: 14.9 µM
  TGI: 28.1 µM
[32]
  GI50: 60.3 µM
[34]
  GI50: 5.06 µM
  TGI: 9.88 µM
[35]
  GI50: 81 µM
[36]
  GI50: 86.3 µM
[37]
  GI50: 71 µM
[41]
  GI50: 48.4 µM
[43]
  GI50: 29.2 µM
[44]
  GI50: 83.3 µM

## C=CCn1c(C)nc2ccc(Nc3nc(Nc4ccc5nc(C)n(CC=C)c5c4)c4ccccc4n3)cc21
[1]
  GI50: 1.7 µM
  TGI: 3.09 µM
[54]
  GI50: 1.72 µM
  TGI: 3.09 µM
[8]
  GI50: 1.71 µM
  TGI: 3.12 µM
[9]
  GI50: 1.62 µM
  TGI: 2.98 µM
[38]
  GI50: 1.64 µM
  TGI: 3.01 µM
[41]
  GI50: 1.52 µM
  TGI: 3.98 µM
[43]
  GI50: 1.34 µM
  TGI: 2.62 µM
[44]
  GI50: 1.72 µM
  TGI: 3.09 µM
[45]
  GI50: 2.22 µM
  TGI: 6.07 µM
[46]
  GI50: 1.85 µM
  TGI: 3.27 µM
[55]
  GI50: 1.55 µM
  TGI: 2.89 µM

## O=C(N[C@@H](c1ccc(Cl)c(Cl)c1)C1CNC1)c1ccc2cnccc2c1
[1]
  GI50: 0.34 µM
  TGI: 14.2 µM
[2]
  GI50: 1.6 µM
  TGI: 12 µM
[3]
  GI50: 0.301 µM
  TGI: 3.43 µM
[4]
  GI50: < 0.0125 µM
  TGI: 0.264 µM
[5]
  GI50: 0.716 µM
  TGI: 3.71 µM
[56]
  GI50: 1.56 µM
  TGI: 13.2 µM
[54]
  GI50: 0.239 µM
  TGI: 6.86 µM
[6]
  GI50: 0.34 µM
  TGI: 11.5 µM
[7]
  GI50: 0.0324 µM
  TGI: 4.69 µM
[8]
  GI50: 0.0408 µM
  TGI: 0.798 µM
[9]
  GI50: 0.715 µM
  TGI: 7.45 µM
[10]
  GI50: 0.49 µM
  TGI: 4.84 µM
[49]
  GI50: 0.543 µM
  TGI: 10 µM
[11]
  GI50: 2.85 µM
  TGI: 12.1 µM
[12]
  GI50: 0.214 µM
  TGI: 11 µM
[50]
  GI50: 0.106 µM
  TGI: 6.18 µM
[13]
  GI50: 0.138 µM
  TGI: 0.7 µM
[14]
  GI50: 0.068 µM
  TGI: 2.27 µM
[15]
  GI50: 0.314 µM
  TGI: 4.44 µM
[16]
  GI50: 0.133 µM
  TGI: 3.09 µM
[57]
  GI50: 0.0591 µM
  TGI: 3.57 µM
[17]
  GI50: 1.56 µM
  TGI: 8.87 µM
[18]
  GI50: 0.189 µM
  TGI: 14.6 µM
[51]
  GI50: 0.157 µM
  TGI: 1.36 µM
[19]
  GI50: 0.336 µM
  TGI: 10.8 µM
[20]
  GI50: 0.534 µM
  TGI: 3.89 µM
[21]
  GI50: 0.475 µM
  TGI: 4.26 µM
[22]
  GI50: 0.417 µM
  TGI: 12.5 µM
[52]
  GI50: 0.0256 µM
  TGI: 0.483 µM
[23]
  GI50: 0.0914 µM
  TGI: 1.21 µM
[24]
  GI50: 1.45 µM
  TGI: 5.07 µM
[25]
  GI50: 0.52 µM
  TGI: 3.06 µM
[26]
  GI50: 0.343 µM
  TGI: 8.4 µM
[27]
  GI50: 0.0676 µM
  TGI: 2.34 µM
[28]
  GI50: 0.194 µM
  TGI: 1.29 µM
[29]
  GI50: 0.301 µM
  TGI: 1.67 µM
[30]
  GI50: 0.41 µM
  TGI: 12.3 µM
[31]
  GI50: 0.924 µM
  TGI: 3.16 µM
[53]
  GI50: 0.216 µM
  TGI: 3.81 µM
[32]
  GI50: 0.33 µM
  TGI: 10.4 µM
[33]
  GI50: 0.2 µM
  TGI: 1.59 µM
[34]
  GI50: 0.0444 µM
  TGI: 3.34 µM
[35]
  GI50: 0.626 µM
  TGI: 5.43 µM
[36]
  GI50: 0.721 µM
  TGI: 9.2 µM
[37]
  GI50: 0.206 µM
  TGI: 12.1 µM
[38]
  GI50: 0.904 µM
  TGI: 12 µM
[39]
  GI50: 3.2 µM
  TGI: > 40.3 µM
[40]
  GI50: 1.8 µM
  TGI: 12.7 µM
[42]
  GI50: 0.288 µM
  TGI: 16.9 µM
[43]
  GI50: 0.639 µM
  TGI: 15 µM
[44]
  GI50: 0.246 µM
  TGI: 3.51 µM
[45]
  GI50: 12.1 µM
  TGI: 27.1 µM
[46]
  GI50: 0.644 µM
  TGI: 13.2 µM
[47]
  GI50: 0.649 µM
  TGI: 10.7 µM
[48]
  GI50: 0.486 µM
  TGI: 17.2 µM
[58]
  GI50: 0.023 µM
  TGI: 0.191 µM
[55]
  GI50: 0.171 µM
  TGI: 0.866 µM
